In paper PMC9218960 (ACS infectious diseases, 2020):
Changes are numbered by the printed parent chain.

What was measured:
Experiment in all cases: [3H]uridine uptake inhibition by purines in PfENT1-SNP-expressing yeast
Assay type in all cases: cell-based
[1] = biological target: T1, PfENT1 F36S/V129I/L133F/P417L (Quad) (Plasmodium falciparum, UniProt Q8IDM6, F36S/L133F/P417L/V129I)
T1 sequence (Q8IDM6 1-422 F36S/V129I/L133F/P417L): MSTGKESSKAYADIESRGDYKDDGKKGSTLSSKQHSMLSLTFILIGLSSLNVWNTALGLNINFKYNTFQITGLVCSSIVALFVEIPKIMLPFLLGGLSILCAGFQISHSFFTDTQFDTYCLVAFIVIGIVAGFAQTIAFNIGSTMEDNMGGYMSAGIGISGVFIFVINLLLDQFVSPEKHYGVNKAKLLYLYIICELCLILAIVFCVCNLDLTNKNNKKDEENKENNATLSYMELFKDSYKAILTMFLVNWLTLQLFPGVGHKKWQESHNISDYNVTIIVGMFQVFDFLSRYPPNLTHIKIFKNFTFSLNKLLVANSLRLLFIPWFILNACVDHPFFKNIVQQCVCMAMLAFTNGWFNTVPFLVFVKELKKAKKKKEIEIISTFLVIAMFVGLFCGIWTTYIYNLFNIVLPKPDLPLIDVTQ

PfENT1 V129I/L133F = biological target: T2, PfENT1 V129I/L133F (Plasmodium falciparum, UniProt Q8IDM6, L133F/V129I)
T2 sequence (Q8IDM6 1-422 V129I/L133F): T1 sequence (Q8IDM6 1-422 F36S/V129I/L133F/P417L) with S36F, L417P

PfENT1 L385I = biological target: T3, PfENT1 L385I (Plasmodium falciparum, UniProt Q8IDM6, L385I)
T3 sequence (Q8IDM6 1-422 L385I): T1 sequence (Q8IDM6 1-422 F36S/V129I/L133F/P417L) with S36F, I129V, F133L, L385I, L417P

PfENT1 Q284E = biological target: T4, PfENT1 Q284E (Plasmodium falciparum, UniProt Q8IDM6, Q284E)
T4 sequence (Q8IDM6 1-422 Q284E): T1 sequence (Q8IDM6 1-422 F36S/V129I/L133F/P417L) with S36F, I129V, F133L, Q284E, L417P

PfENT1 F394L = biological target: T5, PfENT1 F394L (Plasmodium falciparum, UniProt Q8IDM6, F394L)
T5 sequence (Q8IDM6 1-422 F394L): T1 sequence (Q8IDM6 1-422 F36S/V129I/L133F/P417L) with S36F, I129V, F133L, F394L, L417P

PfENT1 F36S/V129I = biological target: T6, PfENT1 F36S/V129I (Plasmodium falciparum, UniProt Q8IDM6, F36S/V129I)
T6 sequence (Q8IDM6 1-422 F36S/V129I): T1 sequence (Q8IDM6 1-422 F36S/V129I/L133F/P417L) with F133L, L417P

SMILES | IC50 [1] | IC50 (PfENT1 V129I/L133F) | IC50 (PfENT1 L385I) | IC50 (PfENT1 Q284E) | IC50 (PfENT1 F394L) | IC50 (PfENT1 F36S/V129I)
OC[C@H]1O[C@@H](n2cnc3c(O)ncnc32)[C@H](O)[C@@H]1O [Inosine, inosine] | 12 ± 1 µM | 20 ± 7 µM | 58 ± 17 µM | 18 ± 6 µM | 94 ± 29 µM | 14 ± 2 µM
O=c1[nH]cnc2nc[nH]c12 [Hypoxanthine, hypoxanthine] | 108 ± 5 µM | 360 ± 66 µM | 173 ± 46 µM | 566 ± 133 µM | 837 ± 93 µM | 107 ± 5 µM
Nc1ncnc2nc[nH]c12 [Adenine, adenine] | 362 ± 56 µM | 930 ± 285 µM | 185 ± 15 µM | 1070 ± 128 µM | 1500 ± 227 µM | 333 ± 32 µM
